One experiment deals with HIV-1. Nature of the experiment: Inhibition of HIV-1 replication in peripheral blood mononuclear cells, viral RNA by real-time PCR. To be noted: Human immunodeficiency virus 1, PBMC. Background: Quantitative PCR measures a nucleic acid by following its amplification.
Experiment [1] deals with Influenza A/WSN/33 (H1N1) virus. Nature of the experiment: In vitro anti-influenza virus assay (neutralization test), cytopathic effect on MDCK cells. It counts as cell-based. Background: Cytopathic effects are the visible damage that an infection or toxin causes in cultured cells.
The next experiment concerns Human rhinovirus 2. In words: In vitro human rhinovirus 2 neutralization assay, cytopathic effect on RD cells. Type of experiment: cell-based. To be noted: Rhinovirus A; Human rhinovirus 2, RD cells, CPE; read-out: IC50. The method, then:
(§1) This assay measured the ability of a test compound to inhibit the cytopathic effect induced by a picornavirus (EV71, Coxsackie Virus B3, or human rhinovirus 2) on RD cells. The method used for this assay is described in Chang et al., J Med Chem, 2005, 48(10), 3522-3535. More specifically, 96-well tissue culture plates were seeded with 200 μL of RD cells at a concentration of 3×10^5 cells/mL in DMEM with 10% FBS. The plates were incubated for 24-30 h at 37° C. and were used at about 90% confluency. Virus (100 TCID50) mixed with different concentrations of a test compound was added to the cells and incubated at 37° C. for 1 h. After adsorption, the infected cell plates were overlaid with 50 μL of DMEM plus 5% FBS and 2% DMSO. The plate was wrapped in Parafilm and incubated at 37° C. for 64 h. At the end of incubation, the plates were fixed by the addition of 100 μL of 0.5% glutaraldehyde for 1 h at room temperature. After the removal of glutaraldehyde, the plates were stained with 0.1% crystal violet for 15 min at room temperature. The plates were washed and dried, and the density of the well was measured at 570 nm. The concentration required for a test compound to reduce the virus-induced cytopathic effect (CPE) by 50% relative to the virus control is expressed as IC50.

A further experiment has as its system HSV-1. In words: In vitro HSV-1 plaque reduction assay in Vero cells (Example 5). The conditions noted are these: Human alphaherpesvirus 1; HSV-1, Vero cells, 72 h; read-out: EC50 (concentration reducing 50% of plaque numbers). It counts as cell-based. The method, then: The method used for this assay is described in Su et al., Antiviral Res., 2008, 79(1), 62-70.
Vero cells were seeded onto a 96-well culture plate at a concentration of 10^4 cells per well one day before infection. Next day, medium was removed and 10 plaque forming unit (pfu) HSV-1 suspension per well were added and incubated at 37° C. with 5% CO2 for 1 h. The infected cell monolayer was then washed with phosphate buffered saline (PBS) and cultured in maintenance medium containing 1 μM of compounds. After 72 h of incubation at 37° C., cell monolayer was fixed with 10% formalin and stained with 1% crystal violet.
Plaque assays were performed with monolayer cultures of Vero cells in 24-well culture plates. For plaque reduction assay, cell monolayer was infected with virus (50 pfu/well) and incubated at 37° C. with 5% CO2 for 1 h. The infected cell monolayer was then washed three times with PBS and overlaid with overlapping solution (maintenance medium containing 1% methylcellulose and various concentrations of indicated compounds). After 72 h of incubation at 37° C., cell monolayer was fixed with 10% formalin and stained with 1% crystal violet. […] The minimal concentration of compounds required to reduce 50% of plaque numbers (EC50) was calculated by regression analysis of the dose-response curves generated from plaque assays.
On the technique in general: In a plaque reduction assay, fewer plaques than in the control indicate reduced infectivity or spread.

Another experiment deals with Enterovirus 71 (4643). Nature of the experiment: In vitro EV 71 neutralization assay, cytopathic effect on RD cells. To be noted: Enterovirus A; Enterovirus 71 (4643), RD cells, CPE; read-out: IC50. It counts as cell-based. The method, then:
as §1

Another experiment relates to EBV. Nature of the experiment: In vitro EBV assay, EBV reactivation in NA cells by anti-EBV-EAD immunofluorescence. The conditions noted are these: human gammaherpesvirus 4; EBV reactivation by TPA/SB in NA cells, compound added 24 h before; read-out: EC50 (concentration reducing 50% of virus replication numbers). Type of experiment: cell-based, Epstein-Barr virus (EBV). As for the experimental part:
The method used for this assay is described in Chang et al., J Virol, 1999, 73, 8857-8866 and Tsai et al., J Virol Methods, 1991, 33, 47-52.
To suppress EBV reactivation, a test compound was added to the NA cell culture medium at indicated final concentration 24 h prior to 12-o-tetradecanoylphorbol-13-acetate (TPA)/sodium n-butyrate (SB) treatment. After treatment, the cells were fixed and assayed by anti-EBV-EAD immunofluorescence for detection of EBV reactivation. […] NA cells were subjected to treatment with the test compound 24 h prior to the addition of TPA/SB. […] Cells were stained with anti-EBV EAD antibody. […] The minimal concentration of the test compound required to reduce 50% of virus replication numbers (EC50) was calculated from regression analysis of the dose-response curves obtained from anti-EBV-EAD immunofluorescence.

Experiment [2] deals with Influenza A/TW/785/05 (H1N1). Nature of the experiment: Anti-influenza CPE neutralization test on MDCK cells. It counts as cell-based. To be noted: Influenza A virus. The method, then:
(§2) Anti-influenza activities of the coumarin compounds were evaluated by measuring the ability of a test compound to inhibit the cytopathic effect induced by an influenza virus on MDCK cells. The 96-well tissue culture plates were seeded with 200 μL of MDCK cells at a concentration of 1.1×10^5 cells/mL in DMEM with 10% fetal bovine serum (FBS). The plates were incubated for 24-30 h at 37° C. and were used at about 90% confluency. Influenza A/WSN/33 (H1N1) virus (100 TCID50) was added to the cells and incubated at 35° C. for 1 h. After adsorption, the infected cell plates were overlaid with 50 μL of DMEM plus 2% FBS and a test compound with different concentrations. The plate was incubated at 35° C. for 72 h. At the end of incubation, the plates were fixed by the addition of 100 μL of 4% formaldehyde for 1 h at room temperature. After the removal of formaldehyde, the plates were stained with 0.1% crystal violet for 15 min at room temperature. The plates were washed and dried, and the density of the well was measured at 570 nm. The concentration required for a test compound to reduce the virus-induced cytopathic effect (CPE) by 50% relative to the virus control was expressed as IC50.
(§3) Compounds 1 and 95 were also tested on various influenza virus strains. Amantadine or Relenza was also tested for comparison. IC50 is defined as the concentration required for a test compound to reduce the virus-induced cytopathic effect (CPE) by 50% relative to the virus control.

In another experiment the test system is Influenza B/TW/70325/05. The experiment is described as above. Type of experiment: cell-based. To be noted: Influenza B virus, Influenza B/TW/70325/05, CPE. The method, then:
as §2, §3

The subject of experiment [3] is Influenza A/TW/83/05 (H3N2). Described as above. Type of experiment: cell-based. The conditions noted are these: Influenza A virus. As for the experimental part:
as §2, §3

Another experiment deals with Influenza B/TW/99/07. The description is as above. Type of experiment: cell-based. The conditions noted are these: Influenza B virus, Influenza B/TW/99/07, CPE. As for the experimental part:
as §2, §3

In experiment [4] the test system is Influenza A/Udorn/72 (H3N2). Described as above. Type of experiment: cell-based. The conditions noted are these: Influenza A virus. The method, then: as §2, §3
The subject of another experiment is Influenza B/TW/710/05. The experiment is described as above. It counts as cell-based. The conditions noted are these: Influenza B virus, Influenza B/TW/710/05, CPE. The method, then:
as §2, §3

In the next experiment the test system is Coxsackie B virus 3. Nature of the experiment: In vitro Coxsackie Virus B3 neutralization assay, cytopathic effect on RD cells. It counts as cell-based. The conditions noted are these: Coxsackie B virus 3, RD cells, CPE. As for the experimental part:
as §1

Experiment [5] has as its system Influenza A/TW/141/04 (H1N1). In words: Anti-influenza CPE neutralization test on MDCK cells. It counts as cell-based. The conditions noted are these: Influenza A virus. As for the experimental part:
as §2, §3

For experiment [6], the system named is Influenza A/TW/3446/04 (H3N2). The description is as above. It counts as cell-based. The conditions noted are these: Influenza A virus. As for the experimental part: as §2, §3
The mark [7] stands for this setting: MDCK, CPE, Table 2, read-out: IC50.

Read-outs that look alike come from different tables or passages of the source.

Data on 2 molecules can be found in US20090312406A1, “COUMARIN COMPOUNDS AND THEIR USE FOR TREATING VIRAL INFECTION” (priority 2008, published 2009).

By inhibition is commonly meant the change of the read-out against control, counted positive when it falls.

Experimental for HIV-1: Equal amounts of wild-type and mutant viruses were used to infect 5×10^4 peripheral blood mononuclear cells (PBMC) in 1.5 mL medium containing DMSO or various concentrations of a test compound. A half-milliliter of the culture medium was collected from each culture at days 3, 5, and 7. Viral RNA was extracted from the collected culture supernatants and the viral titers (copies/mL) were determined by real-time PCR. The percentage of inhibition was calculated as [100−(VD/VC)]×100%, where VD and VC refer to the virus titers in the presence and absence of the test compound, respectively.

In the case of `Cc1cc(=O)oc2c1ccc1oc(C(=O)c3ccccc3)c(-c3ccccc3)c12` [Compound 1, 8-benzoyl-4-methyl-9-phenyl-furo[2,3-h]chromen-2-one], the inhibition at 0.1 µM with HIV-1 (72 h, read-out: Inhibition (%) Day 3) amounted to 2%; in the experiment on HIV-1 (120 h, read-out: Inhibition (%) Day 5), 82%; with HIV-1 (168 h, read-out: Inhibition (%) Day 7), 91%. For the same molecule, the IC50 in [1] (MDCK cells, 72 h, lower bound (10 nM), upper in μM, read-out: IC50 (concentration reducing virus-induced cytopathic effect by 50%)) is 10 to 999 nM; in experiment [1] (setting [7]), 119 ± 43 nM; in the experiment on Human rhinovirus 2 it was 12 ± 1 nM; in the experiment on Enterovirus 71 (4643) it was 2 ± 1 nM; in experiment [2], 52 ± 1 nM; in the experiment with Influenza B/TW/70325/05, 67 ± 2 nM. For the same molecule, the IC50 was 57 ± 6 nM in experiment [3]; 89 ± 14 nM in the experiment with Influenza B/TW/99/07; 347 ± 188 nM in experiment [4]; 102 ± 20 nM in the experiment on Influenza B/TW/710/05; 5 ± 1 nM in the experiment with Coxsackie B virus 3. For the same molecule, the EC50 with HSV-1 was roughly 500 nM; in the experiment on EBV it was less than 500 nM.
With `CC(=O)N[C@H]1[C@H]([C@H](O)[C@H](O)CO)OC(C(=O)O)=C[C@@H]1N=C(N)N` [Relenza, Zanamivir, reference compound], the IC50 is 62 ± 18 nM in experiment [1] (setting [7]); greater than 25000 nM with Human rhinovirus 2; greater than 25000 nM in the experiment with Enterovirus 71 (4643); 1060 ± 982 nM in experiment [2]; 350 ± 140 nM in experiment [5]; 20 ± 10 nM with Influenza B/TW/70325/05. The IC50 is 918 ± 26 nM in [3]; 99 ± 9 nM in the experiment on Influenza B/TW/99/07; 670 ± 232 nM in [4]; 30 ± 19 nM in the experiment on Influenza B/TW/710/05; 30 ± 10 nM in experiment [6]; greater than 25000 nM in the experiment with Coxsackie B virus 3.
